Test results taken from US6528068B1, “Cosmetic composition containing N-acyl neutral amino acid esters of lower alcohols” (Ajinomoto Co., Inc., priority 1997, dated 2003).

How the values were obtained:
[1] = solids; cited from earlier work
[2] = Jap. pat. Publn. (kokoku); cited from earlier work
[3] = Examination of solubility of a UV-A absorbent in various oily materials; details: amount of “Soft Shade DH” dissolved in 100 g of the oily material
[4] = Evaluation of pigment dispersibility (wetting point / flowing point); format: physicochemical; details: difference between wetting point and flowing point; liquid paraffin added to TiO2 containing 10% by weight of oily material
Description: With respect to various oily materials including some N-acylamino acid esters of the present invention, powdery compositions formed by blending each oily material with a powder pigment of titanium dioxide (TiO2) were evaluated or examined from various aspects. This will be described in detail below.
The minimum value in terms of parts by weight in which the powder was put together was defined as wetting point. […] Liquid paraffin was further added thereto from the wetting point, and the minimum numeral of parts by weight of the liquid paraffin in which the mixture came to show a fluidity was defined as flowing point.
The smaller the difference between the wetting point and the flowing point, the better the dispersibility (“Science of Fragrance”, published by Fragrance Journal in 1990, p. 390). Accordingly, the index of pigment dispersibility was evaluated in terms of the difference between the wetting point and the flowing point. That is, in Table 47, when the difference between the wetting point and the flowing point was up to 35, it was rated as ∘∘; when the difference was between 36 and 45, it was rated as ∘; and when the difference was between 46 and 55, it was rated as Δ; and when the difference was 56 or more, it was rated as ×.

| Compound | solubility in water and oil [1] | compatibility with an oily solvent [2] | Solubility [3] | Pigment dispersibility [4] |
| --- | --- | --- | --- | --- |
| COc1ccc(C(=O)CC(=O)c2ccc(C(C)(C)C)cc2)cc1 [4-t-butyl-4′-methoxybenzoylmethane] | sparingly soluble in water and oil |  |  |  |
| CCCCC(CC)C(=O)N(C)CCC(=O)OC (stereo not drawn) [N-2-ethylhexanoyl-N-methyl-β-alanine.methyl ester] |  | poor |  |  |
| CCCCCCCCCCCC(=O)N(C)CC(=O)OCCCCCCCCCCCCCCCC(C)C [Reference Synthesis Example 1, N-lauroylsarcosine isostearyl ester] |  |  | X (The amount of the compound dissolved in 100 g of the oily material is less than 5 g.) | Δ (when the difference was between 46 and 55, it was rated as Δ) |
| CCCCCCCCCCCC(=O)N(C)CC(=O)OCC(CCCCCCCC)CCCCCCCCCC (stereo not shown) [Reference Synthesis Example 2, N-lauroylsarcosine octyl dodecyl ester] |  |  | X (The amount of the compound dissolved in 100 g of the oily material is less than 5 g.) |  |
| CCCCCCCCCCCC(=O)N(C)CC(=O)OC(C)C [Synthesis Example 14, N-laurolysarcosine isopropyl ester] |  |  | ◯ (It is at least 10 g.) | ◯◯ |
| CCCCCCCCCCCC(=O)N(C)CCC(=O)OC(C)C [Synthesis Example 15, N-lauroyl-N-methyl-β-alanine isopropyl ester] |  |  | ◯ (It is at least 10 g.) | ◯◯ |
| CCCCCCCCCCCCCCCCCC(=O)OCC(O)CO (stereo not shown) [glycerol stearate] |  |  | X (The amount of the compound dissolved in 100 g of the oily material is less than 5 g.) |  |
| CCCCCCCCCCCCCC(=O)OC(C)C [isopropyl myristate] |  |  | X (The amount of the compound dissolved in 100 g of the oily material is less than 5 g.) | Δ (when the difference was between 46 and 55, it was rated as Δ) |
| CCCCCCCCCCCC(=O)N[C@@H](CCC(=O)OCC(CCCCCCCC)CCCCCCCCCC)C(=O)OCC(CCCCCCCC)CCCCCCCCCC (stereo partly shown) [lauroylglutamic acid octyldodecyl diester] |  |  |  | Δ (when the difference was between 46 and 55, it was rated as Δ) |
